Converted amounts (≈) assume the structure as drawn. “Also recorded” adds a separate entry of the source.
How the values were obtained:
KYSE-450 = assay: Cytotoxicity assay (MTT), KYSE-450; assay type: cell-based; conditions: 48 h, 1.56-50 μg/mL tested; for Cytotoxicity against KYSE-450, IC50: human esophageal carcinoma cells; for IC50: KYSE-450, human esophageal carcinoma cells, read-out: Cytotoxicity against KYSE-450, IC50
Method: (§1) Test compounds were dissolved in dimethyl sulfoxide (DMSO) to make stock solutions and further diluted in culture medium. Human esophageal carcinoma cell lines (KYSE-70, KYSE-150, KYSE-450 and KYSE-520) were cultured in RPMI 1640 or DMEM medium containing 10% fetal bovine serum and 1% antibiotics (Penicillin and strep). 3×10^3 cells/well were seeded in a 96-well plate and allowed to attach to the plate overnight. After the recovery, cells were treated with 1.56, 3.125, 6.25, 12.5, 25, 50 μg/mL of compounds in culture medium for 48 h. Then, 20 μL of MTT (5 mg/mL stock in PBS) per well was added into the medium (200 μL) and incubated for 4 h at 37° C. Finally, the culture medium was removed and 200 μL of DMSO were added. Absorbance of the solution was measured using microplate reader spectrophotometer (Bio-Rad Laboratories, Inc., Hercules, Calif.) at a wavelength of 570 nm.

KYSE-70 = assay: Cytotoxicity assay (MTT), KYSE-70; assay type: cell-based; conditions: 48 h, 1.56-50 μg/mL tested; for Cytotoxicity against KYSE-70, IC50: human esophageal carcinoma cells; for IC50: KYSE-70, human esophageal carcinoma cells, read-out: Cytotoxicity against KYSE-70, IC50
Method: as §1

KYSE-150 = assay: Cytotoxicity assay (MTT), KYSE-150; assay type: cell-based; conditions: human esophageal carcinoma cells, 1.56-50 μg/mL tested; for Cytotoxicity against KYSE-150, IC50: 48 h; for IC50: Homo sapiens, KYSE-150, 48 h, read-out: Cytotoxicity against KYSE-150, IC50
Method: as §1

KYSE-150 cells = assay: Tumor xenograft mouse model; assay type: in vivo, nude female mice; conditions: KYSE-150 xenograft
Method: The tumor xenograft mice were treated with a vehicle or compound 9 at 15 or 30 mg/kg once a day […] for 12 days. Tumor size was measured every two days and body weight was measured every day. On day 13, the mice were sacrificed, and tumor weight was measured (n=5, *p<0.05, **p<0.01, ***p<0.001, ****p<0.0001).
Six to eight weeks old nude female mice weighing about 16-20 g were purchased from the Laboratory Animal Services Center, the Chinese University of Hong Kong, and 2×10^6 KYSE-150 cells in […] saline were injected subcutaneously into the flanks of the mice. When the tumor volume reached about 100 mm^3, the mice were randomly divided into three groups (n=5). The control group was administered with saline, while compound 9 treatment groups were given different doses of 9 (15 or 30 mg/kg, respectively) by intraperitoneal injection. Tumor volume were measured by vernier caliper every two days for 12 days, and calculated according to the formula: Volume=(width)^2×length/2. At the end of observation, mice were killed to remove the tumors. Then the samples were fixed in 4% paraformaldehyde and embedded in paraffin. Five-micro-meter sections were stained with hematoxylin/eosin according to a standard procedure. Animal protocol was approved by the committee for Care of Laboratory Animals in the School of Chinese Medicine at the Hong Kong Baptist University.

KYSE-520 = assay: Cytotoxicity assay (MTT), KYSE-520; assay type: cell-based; conditions: human esophageal carcinoma cells, 1.56-50 μg/mL tested; for IC50: Homo sapiens, KYSE-520, 48 h, read-out: Cytotoxicity against KYSE-520, IC50
Method: as §1

[1] = 15 or 30 mg/kg once a day for 12 days

Which results are given for `COc1cc(C[C@@H](CO)[C@H](CO)Cc2cc(OC)c(O)c(OC)c2)cc(OC)c1O` [Compound 2, 5,5′-Dimethoxysecoiso-lariciresinol]?
Cytotoxicity against KYSE-450, IC50 (KYSE-450): 39.21 μg/mL; Cytotoxicity against KYSE-450, IC50 (KYSE-450; listed as compound 2): ~50 μg/mL; Cytotoxicity against KYSE-70, IC50 (KYSE-70): 47.22 μg/mL; Cytotoxicity against KYSE-70, IC50 (KYSE-70; listed as compound 2): ~50 μg/mL; Cytotoxicity against KYSE-150, IC50 (KYSE-150): 49.63 μg/mL; Cytotoxicity against KYSE-150, IC50 (KYSE-150; listed as compound 2): ~50 μg/mL

`COc1cc([C@H]2OC[C@H]3[C@@H]2CO[C@@H]3c2cc(OC)c(O)c(OC)c2)cc(OC)c1O` [Compound 9, Syringaresinol] was tested. Which IC50 (KYSE-450) did it give?
The IC50 was greater than 50 µg/mL.

What about the body weight (KYSE-150 cells; [1]) of the same compound?
The body weight was “suppresses the body weight; also recorded: less body weight loss”.

What about the toxic death (KYSE-150 cells; [1]) of the same compound?
The toxic death was “no toxic death”.

What about the weight of tumor (KYSE-150 cells; 15 or 30 mg/kg once a day for 12 days, day 13) of the same compound?
The weight of tumor was “suppresses the weight of tumor”.

And the “tumor growth / size of tumor” value (KYSE-150 cells; 15 or 30 mg/kg once a day for 12 days, vs control)?
Its value is “suppresses the size of tumor; also recorded: significant tumor growth delay”.

And the “H&E staining of the tumor tissue (histological manifestation)” value (KYSE-150 cells; 15 or 30 mg/kg, vs control (orderly and tightly))?
The value was “obviously loose and messy”.

What about the IC50 (KYSE-520) of the same compound?
Its IC50 is greater than 50 µg/mL.

And the IC50 (KYSE-70)?
Its IC50 is greater than 50 µg/mL.

What about the IC50 (KYSE-150) of the same compound?
Its IC50 is greater than 50 µg/mL.

How did the IC50 (KYSE-450) turn out when `COc1cc(CC(C)C(O)(CO)Cc2cc(OC)c(O)c(OC)c2)ccc1O` (stereo not shown) [Compound 3, 2-(4-Hydroxy-3,5-dimethoxybenzyl)-3-(4-hydroxy-3-methoxybenzyl)-1,2-butanediol] was run?
Its IC50 is greater than 50 µg/mL.

And the IC50 (KYSE-520)?
The IC50 was greater than 50 µg/mL.

And the IC50 (KYSE-70)?
Its IC50 is greater than 50 µg/mL.

And the IC50 (KYSE-150)?
The IC50 was 34.5 µg/mL (≈ 87.9 µM).

How did the IC50 (KYSE-450) turn out when `COc1cc([C@H]2Oc3c(OC)cc(CCCO)cc3[C@@H]2CO)ccc1O` [Compound 8, Dihydrodehydrodiconifery Alcohol] was run?
The IC50 was greater than 50 µg/mL.

What about the IC50 (KYSE-520) of the same compound?
Its IC50 is roughly 30 µg/mL (≈ 83.2 µM).

And the “Cytotoxicity against KYSE-520, IC50” value (KYSE-520; 48 h)?
The value was 37.34 μg/mL.

And the IC50 (KYSE-70)?
The IC50 was greater than 50 µg/mL.

And the IC50 (KYSE-150)?
The IC50 was roughly 30 µg/mL (≈ 83.2 µM).

What about the “Cytotoxicity against KYSE-150, IC50” value (KYSE-150) of the same compound?
The value was 31.86 μg/mL.
